Experimental data published in paper PMC11672562, “Synthesis and Antibacterial Activity of New 6″-Modified Tobramycin Derivatives” (Antibiotics, 2024).
Converted amounts (≈) assume the structure as drawn.

Assays:
S. aureus ATCC 29213 = experiment: MIC, broth microdilution, S. aureus ATCC 29213; format: cell-based; details: Staphylococcus aureus, ATCC29213, Table 1, read-out: MIC
Method: (§1) The microbial strains used in this study were obtained from the collection of the Gause Institute of New Antibiotics. […] Storage was carried out in accordance with CLSI guidelines. Prior to experimentation, the bacterial strains were revived from cryopreservation by inoculating them onto trypticase soy agar (Becton, Dickinson, France) and incubating at (36 ± 1) °C for 16–24 h. Individual morphologically homogeneous colonies were then suspended in sterile physiological saline, and the turbidity of the suspension was adjusted to 0.5 McFarland units using a DEN-1 spectrophotometer (Biosan, Riga, Latvia), which corresponds to a concentration of 1.5 × 10^8 CFU/mL.
(§2) The samples were dissolved in sterile distilled water or dimethyl sulfoxide (DMSO), depending on the physicochemical properties of the compounds under investigation, to a concentration of 10,000 µg/mL.
(§3) Activity was evaluated by determining the minimum inhibitory concentration (MIC) values using the microdilution method in Mueller–Hinton Broth (Beckton and Dickinson, Le Pont-de-Claix, France), in accordance with the standard procedure for assessing the antimicrobial susceptibility of microorganisms.
(§4) The analysis was conducted in 96-well microtiter plates (Medpolymer, Saint Petersburg, Russia). The bacterial inoculum was introduced within 15 min of preparation. […] Microbial growth in the presence of the tested compounds was compared to the growth control (without exposure to the test samples). The MIC was defined as the lowest concentration at which visible microbial growth was inhibited.
The MIC values of the reference strains were required to fall within the acceptable ranges specified in [30], provided that standard assay conditions were maintained.

E. coli JW5503 = experiment: MIC, broth microdilution, E. coli JW5503; format: cell-based; details: Escherichia coli, JW5503
Method: as §1, §2, §3, §4

[1] = test system: resistant clinical isolates of P. aeruginosa; experiment: MIC against resistant clinical isolates of P. aeruginosa; format: cell-based; details: for MIC: Pseudomonas aeruginosa
Method: as §1, §2, §3, §4

E. coli JW5503 kanS = experiment: MIC in LB medium, E. coli JW5503 kanS; format: cell-based; details: Escherichia coli, JW5503KANS, 18 h
Method: (§5) The determination of the minimum inhibitory concentration (MIC) was performed on three strains from the working collection of MSU: E. coli JW5503 [34], which lacked a kanamycin resistance cassette removed as per the method outlined in [39], and two strains derived from this strain through in vivo selection with kanamycin. The latter strains harbored P610T and P610L substitutions in the fusA gene. For the MIC determination, 100 μL (rows 2–11) and 200 μL (row 1) of LB liquid medium containing a 1:1000 dilution of overnight culture was added to each well of a 96-well transparent plate. Subsequently, 2 μL of a 50 μg/mL antibiotic solution was introduced into the first row, and serial two-fold dilutions were performed across each horizontal row, decreasing the antibiotic concentration incrementally. The final two rows were designated as controls: row 12 contained LB medium without cells or antibiotics, and row 11 contained cells without antibiotics. Following 18 h of incubation at 37 °C with constant agitation, the optical density at 590 nm (A590) was measured using a Victor X5 2030 spectrofluorometer (PerkinElmer, Waltham, MA, USA). The MIC was defined as the antibiotic concentration in the first well where no cell growth occurred. Each experiment was conducted in triplicate for all tested antibiotics.

[2] = test system: E. coli JW5503 kanS EF-G P610T; experiment: MIC in LB medium, aminoglycoside-resistant mutant EF-G P610T; format: cell-based; details: Escherichia coli, 18 h
Method: as §5

[3] = test system: E. coli JW5503 kanS EF-G P610L; experiment: MIC in LB medium, aminoglycoside-resistant mutant EF-G P610L; format: cell-based; details: Escherichia coli, 18 h
Method: as §5

MTT cytotoxicity assay = format: cell-based; details: human, MTT test, HEK293T cells
Method: An MTT assay was conducted to assess the cytotoxicity of compounds on HEK293T cell lines. Cell line HEK293T was kindly provided by Dr. E. Knyazhanskaya. A total of 2500 cells per well were seeded into 96-well plates containing 100 μL of DMEM/F12 medium (Paneco LLC, Moscow, Russia) and incubated at 37 °C with 5% CO2 for 24 h prior to treatment. Dilutions of the test compounds 4a, 4b, 6a, and 6b, prepared in deionized sterile water, were added in 11 μL aliquots to achieve final concentrations ranging from 8.75 to 140 μg/mL (five dilutions per compound) in triplicate. The cells were incubated with the compounds for 72 h, after which 0.5 mg/mL of MTT reagent (Paneco LLC, Russia) was added. Following a 1.5 h incubation, the medium was removed, and 120 μL of DMSO was added to dissolve the blue formazan derivative formed by metabolically active cells. The absorbance at 565 nm was measured using a plate reader, and the data were normalized to untreated control cells. The half-maximal inhibitory concentration (IC50) was calculated using GraphPad Prism 5 software (GraphPad Software, Inc., San Diego, CA, USA).

[4] = test system: E. coli S30 Extract System, firefly luciferase synthesis; experiment: Cell-free translation inhibition assay (firefly luciferase synthesis); format: biochemical; details: final concentration of 2 μM; water = 100
Method: The inhibitory effects of the tested compounds on in vitro firefly luciferase synthesis were evaluated using the E. coli S30 Extract System for Linear Templates (Promega, Madison, WI, USA), as described previously. Briefly, reaction mixtures with a total volume of 5 μL were prepared, containing 0.1 mM of a mixture of all canonical amino acids, 4 U of RiboLock RNase Inhibitor (Thermo Fisher Scientific, Waltham, MA, USA), and 2 μM of the tested compounds. After pre-incubation at room temperature for 5 min, 100 ng of in vitro-transcribed firefly luciferase mRNA was added. The mixtures were then incubated at 37 °C for 20 min. After incubation, each reaction was supplemented with 5 μL of Bright-Glo™ reagent (Promega, Madison, WI, USA), and chemiluminescence was measured using a VICTOR X5 Multilabel Plate Reader (PerkinElmer, Waltham, MA, USA). The luminescence values were normalized to the negative control (water), which was assigned 100% activity.

[5] = P. aeruginosa strain, Table 2 column 3, head prints 27853
[6] = P. aeruginosa strain, Table 2 column 4, head prints 27853
[7] = P. aeruginosa strain, Table 2 column 5, head prints 27853
[8] = P. aeruginosa strain, Table 2 column 6, head prints 27853
[9] = P. aeruginosa strain, Table 2 column 7, head prints 27853
[10] = multidrug-resistant clinical isolates P. aeruginosa 21653 and P. aeruginosa 21571

## NCCNC[C@H]1O[C@H](O[C@@H]2[C@@H](O)[C@H](O[C@H]3O[C@H](CN)[C@@H](O)C[C@H]3N)[C@@H](N)C[C@H]2N)[C@H](O)[C@@H](N)[C@@H]1O [Compound 4a, 6″-(2-Aminoethyamino)-6″-deoxytobramycin acetate]
S. aureus ATCC 29213
  MIC: 0.125 µg/mL
E. coli JW5503
  MIC: 2 µg/mL
[1]; [5]
  MIC: 16 µg/mL
[1]; [6]
  MIC: 32 µg/mL
[1]; [7]
  MIC: > 32 µg/mL
[1]; [8]
  MIC: > 32 µg/mL
[1]; [9]
  MIC: 32 µg/mL
[1]; [10]
  MIC: 16 to 32 µg/mL
E. coli JW5503 kanS
  MIC: 10 µg/mL
[2]
  MIC: 40 µg/mL
[3]
  MIC: 40 µg/mL
MTT cytotoxicity assay
  IC50 at 72 h: > 140 µg/mL
[4]
  % control signal (relative maximal rate of firefly luciferase accumulation in vitro): 0.02%

## NCCCNC[C@H]1O[C@H](O[C@@H]2[C@@H](O)[C@H](O[C@H]3O[C@H](CN)[C@@H](O)C[C@H]3N)[C@@H](N)C[C@H]2N)[C@H](O)[C@@H](N)[C@@H]1O [Compound 4b, 6″-(3-Aminopropyl-1-amino)-6″-deoxytobramycin acetate]
S. aureus ATCC 29213
  MIC: 0.125 µg/mL
E. coli JW5503
  MIC: 8 µg/mL
[1]; [5]
  MIC: 32 µg/mL
[1]; [6]
  MIC: 32 µg/mL
[1]; [7]
  MIC: > 32 µg/mL
[1]; [8]
  MIC: > 32 µg/mL
[1]; [9]
  MIC: > 32 µg/mL
E. coli JW5503 kanS
  MIC: 20 µg/mL
[2]
  MIC: 80 µg/mL
[3]
  MIC: 80 µg/mL
MTT cytotoxicity assay
  IC50 at 72 h: > 140 µg/mL
[4]
  % control signal (relative maximal rate of firefly luciferase accumulation in vitro): 7%

## N=C(N)NCCCNC[C@H]1O[C@H](O[C@@H]2[C@@H](O)[C@H](O[C@H]3O[C@H](CN)[C@@H](O)C[C@H]3N)[C@@H](N)C[C@H]2N)[C@H](O)[C@@H](N)[C@@H]1O [Compound 6b, 6″-(3-Guanidinopropyl-1-amino)-6″-deoxytobramycin acetate]
S. aureus ATCC 29213
  MIC: 0.5 µg/mL
E. coli JW5503
  MIC: 8 µg/mL
[1]; [5]
  MIC: 16 µg/mL
[1]; [6]
  MIC: 32 µg/mL
[1]; [7]
  MIC: > 32 µg/mL
[1]; [8]
  MIC: > 32 µg/mL
[1]; [9]
  MIC: > 32 µg/mL
E. coli JW5503 kanS
  MIC: 40 µg/mL
[2]
  MIC: 80 µg/mL
[3]
  MIC: 80 µg/mL
MTT cytotoxicity assay
  IC50 at 72 h: > 140 µg/mL
[4]
  % control signal (relative maximal rate of firefly luciferase accumulation in vitro): 21%

## N=C(N)NCCNC[C@H]1O[C@H](O[C@@H]2[C@@H](O)[C@H](O[C@H]3O[C@H](CN)[C@@H](O)C[C@H]3N)[C@@H](N)C[C@H]2N)[C@H](O)[C@@H](N)[C@@H]1O [Compound 6a, 6″-(2-Guanidinoethylamino)-6″-deoxytobramycin acetate]
S. aureus ATCC 29213
  MIC: 0.125 µg/mL
E. coli JW5503
  MIC: 4 µg/mL
[1]; [5]
  MIC: 16 µg/mL
[1]; [6]
  MIC: 16 µg/mL
[1]; [7]
  MIC: > 32 µg/mL
[1]; [8]
  MIC: 32 µg/mL
[1]; [9]
  MIC: 32 µg/mL
[1]; [10]
  MIC: 16 to 32 µg/mL
E. coli JW5503 kanS
  MIC: 10 µg/mL
[2]
  MIC: 40 µg/mL
[3]
  MIC: 40 µg/mL
MTT cytotoxicity assay
  IC50 at 72 h: > 140 µg/mL
[4]
  % control signal (relative maximal rate of firefly luciferase accumulation in vitro): 0.4%

## NC[C@H]1O[C@H](O[C@H]2[C@H](O)[C@@H](O[C@H]3O[C@H](CO)[C@@H](O)[C@H](N)[C@H]3O)[C@H](N)C[C@@H]2N)[C@H](N)C[C@@H]1O [Tobramycin, tobramycin]
S. aureus ATCC 29213
  MIC: 0.06 µg/mL (≈ 0.128 µM)
E. coli JW5503
  MIC: 1 µg/mL (≈ 2.14 µM)
[1]; [5]
  MIC: > 128 µg/mL
[1]; [6]
  MIC: > 128 µg/mL
[1]; [7]
  MIC: > 128 µg/mL
[1]; [8]
  MIC: > 32 µg/mL
[1]; [9]
  MIC: > 32 µg/mL
[1]; resistant clinical isolates of P. aeruginosa strains
  resistance index: > 256
E. coli JW5503 kanS
  MIC: 5 µg/mL (≈ 10.7 µM)
[2]
  MIC: 20 µg/mL (≈ 42.8 µM)
[3]
  MIC: 40 µg/mL (≈ 85.6 µM)
MTT cytotoxicity assay
  IC50 at 72 h: 58 ± 3 µg/mL (≈ 124 µM)
[4]
  % control signal (relative maximal rate of firefly luciferase accumulation in vitro): 0.01%
